Source: ChEMBL document CHEMBL4392883, “Konamycins A and B and Rubromycins CA1 and CA2, Aromatic Polyketides from the Tunicate-Derived Streptomyces hyaluromycini MB-PO13T” (2019)
In brackets after ≈: the same amount, converted by molar mass.

Experiments:
Assay type in all cases: functional
Escherichia coli = assay: Antimicrobial activity against Escherichia coli NIH-JC2 measured after 20 hrs; conditions: NIH-JC2, 20 h
Staphylococcus aureus = assay: Antimicrobial activity against Staphylococcus aureus IFO 12732 measured after 20 hrs; conditions: IFO 12732, 20 h
[1] = tested on: Mycolicibacterium smegmatis; assay: Antimicrobial activity against Mycobacterium smegmatis NBRC 3207 measured after 20 hrs; conditions: NBRC 3207, 20 h
Bacillus cereus = assay: Antimicrobial activity against Bacillus cereus NBRC 15305 measured after 20 hrs; conditions: NBRC 15305, 20 h
Kocuria rhizophila = assay: Antimicrobial activity against Kocuria rhizophila ATCC 9341 measured after 20 hrs; conditions: DC2201 
Enterococcus faecalis = assay: Antimicrobial activity against Enterococcus faecalis NBRC 100480 measured after 20 hrs
Candida albicans = assay: Antimicrobial activity against Candida albicans NBRC 1594 measured after 20 hrs; conditions: NBRC 1594, 20 h
Kluyveromyces marxianus = assay: Antimicrobial activity against Kluyveromyces fragilis ATCC 8635 measured after 20 hrs; conditions: ATCC 8635, 20 h
[2] = Antioxidant activity assessed as superoxide dismutase-like activity measured after 20 mins by WST-based assay
[3] = Antioxidant activity assessed as DPPH radical scavenging activity

| SMILES | MIC (Escherichia coli) [µg/mL] | MIC (Staphylococcus aureus) [µg/mL] | MIC [1] [µg/mL] | MIC (Bacillus cereus) [µg/mL] | MIC (Kocuria rhizophila) [µg/mL] | MIC (Enterococcus faecalis) [µg/mL] | MIC (Candida albicans) [µg/mL] | MIC (Kluyveromyces marxianus) [µg/mL] | SC50 [2] [µM] | SC50 [3] [µM] |
| --- | --- | --- | --- | --- | --- | --- | --- | --- | --- | --- |
| COC1=CC(=O)c2c(O)c3c(c(O)c2C1=O)O[C@@]1(CCc2cc4cc(C(=O)O)oc(=O)c4c(O)c2O1)[C@H]3O | > 100 | 0.4 (≈ 0.763 µM) | 12.5 (≈ 23.8 µM) | 50 (≈ 95.3 µM) | 50 (≈ 95.3 µM) | > 100 | > 100 | > 100 | – | – |
| O=C(O)c1cc(O)c(O)c(O)c1 | – | – | – | – | – | – | – | – | 102 | – |
| Cc1c(C)c2c(c(C)c1O)CCC(C)(C(=O)O)O2 (stereo not given) | – | – | – | – | – | – | – | – | – | 9 |
| COC1=CC(=O)c2c(O)c3c(c(O)c2C1=O)O[C@@]1(CCc2cc4cc(C(=O)O)oc(=O)c4c(O)c2O1)C3 | > 100 | 0.2 (≈ 0.393 µM) | 3.1 (≈ 6.1 µM) | 12.5 (≈ 24.6 µM) | 12.5 (≈ 24.6 µM) | 100 (≈ 197 µM) | 6.3 (≈ 12.4 µM) | 12.5 (≈ 24.6 µM) | – | – |
| CC(=O)O[C@H]1C2=C(C=C3C(=O)c4c(ccc([C@H]5CC[C@H](O)[C@@H](C)O5)c4O)C(O)=C32)C(=O)[C@@](C)(O)[C@@H]1OC(=O)CCC(=O)O | – | – | – | – | – | – | – | – | 66 | 21 |
